Measurements reported in patent US20040223946A1, “Adhesive treatment for insect and related bites” (Closure Medical Corporation, priority 2003, published 2004).

Experiment: Observation of the monomer composition about one minute and at least twenty-four hours after preparation
Format: physicochemical
Conditions: 1 wt % in 2 mL 2-octyl cyanoacrylate monomer
Procedure: A 2-octyl cyanoacrylate monomer composition is prepared by adding 1 wt % menthol to 2 mL of 2-octyl cyanoacrylate monomer. The mixture is stirred.
The characteristics of the composition are observed at about one minute after preparation and later at least twenty-four hours after preparation.

solubility of the additive in 2-octyl cyanoacrylate monomer: soluble in the monomer
SMILES: CC1CCC(C(C)C)C(O)C1 (stereo not shown) [menthol]
